{"source": "patent US6677307B2", "about": "“TGF-α polypeptides, functional fragments and methods of use therefor” (Kaleidos Pharma, Inc., priority 1999, dated 2004)", "key": {"mouse intestines": {"system": "mouse intestines", "experiment": "histological examination of intestines of CP-treated mice", "assay_type": "in vivo", "settings": "CP treatment; 50 μg/kg; FIG. 4", "method": "The experiment procedure dosed those animals to be treated with TGFα 57 4 hours prior to challenge with CP. A single dose of CP was administered. Additional doses (as indicated) of TGFα 57 were made at 24 hours, 48 hours, 72 hours and 96 hours after the CP dose. All doses were made by IP injection. Controls were dosed with saline instead of either or both of CP and TGF-α57.\nThe animals were sacrificed about 4 hours after the last TGF-α57 (or saline) dose. Key organs were removed and spleens were immediately weighed after a clean incision. All the relevant organs were placed in formalin, transported for histopathological analysis, mounted, sectioned, stained and observed. The results of this histological analysis of the spleens for hematopoietic effect and the GI tract (below) provided surprising and unexpected data of the effect of TGF-α57 activity.\nTGFα or a peptide from formula I, formula II, formula III, formula IV, formula V, or formula VI having TGFα activity or combinations thereof are also useful for treating mucositis associated intestinal bleeding, dyspepsia caused by with cytotoxic therapy and for improving the barrier function of the GI tract compromised by cytotoxic therapy. The in vivo experiment with seven groups of mice described above for hematopoietic effects noted in spleens also examined the GI tract of these treated mice. […] A single row of intestinal crypt is found at the base of the mucosa. These crypts that lie between adjacent villi are surrounded by the same lamina propria that form the villous cores. Both columnar absorptive cells and goblet cells cover the villous surfaces. The goblet cells contain apical clear vacuoles. […] Specifically, the villus was long and slender. Both absorptive cells and goblet cells were visible at the surface of the villi, and there was an abundant amount of goblet cells on the surface.\nA 160×magnification of the intestines of a CP-treated mouse, a normal mouse and a CP treated and TGFα57 treated mouse at the same doses as described above. […] The crypts were irregularly shaped and in had various heights. […] The crypts also appeared normal.\nRed cells were visible at the damaged surface indicating intestinal bleeding. […] Globlet cells appeared interspersed, necrotic and fewer in number than normal. […] Specifically, the epithelial cells appeared normal with extended brush borders. The nuclei were very densely stained and elongated.\nThe histological data is summarized in FIG. 4 that measured average crypt height of the three groups of mice.\nAn alcian blue staining method permitted differentiation of absorptive cells and goblet cells. Goblet cell mucus is stained a blue color while the absorptive cells remain less stained. […] In the normal intestine each villus extended from the luminal surface to the basal muscularis mucosal surface. Goblet cells were scattered and predominated in the base of the villus whereas columnar absorptive cells lined the luminal surface. […] The injured absorptive and goblet cells were degenerating at the tip of the villi and abundant secretory mucus material was stained in the luminal surface. In the CP/TGF-α mouse, there were an increased number of goblet cells scattered throughout the villi. The intestinal villi appeared normal with elongation. […] The luminal plasma membranes of the villi were well protected by TGF-α treatment. The number of goblet cells was counted on the average unit length of intestine."}, "[1]": {"system": "immune cells (T cell lineage), mast cells", "experiment": "immune cells, mast cells and cytokines in vivo after CP", "design": "species or system mice", "settings": "in vivo", "text": "The stimulated immune cells were phenotypically identified as CD4 positive T cells and double null CD4 negative CD8 negative T cell progenitors. […] The in vivo activity of TGFα (and the functional peptides of formula I, formula II, formula III, and formula IV) to stimulate early T cell progenitors in the release of TH-1 and TH-2 cytokines and this regulation of immune phenomena. The stimulation of select immune cells, in particular cells of a T cell lineage, was seen consistently in the mice who received CP and TGF-α57 in lymphoid tissue, Peyers Patches and the spleen. Further, recruitment of help via CD4 cells in some cases boosts immune system function in general.\nThis is a parallel activity that is in addition to the gastrointestinal anti-inflammatory activity and prevention of mucositis of TGFα (and the functional peptides of formula I, formula II, formula III, and […]) described herein."}, "[2]": {"system": "EGF receptor family (e.g., ErbB1 through 4)", "settings": "background statement; cited from earlier work"}, "[3]": {"system": "chronic inflammatory-like gastrointestinal symptoms", "assay_type": "in vivo, non-human primate", "design": "wt.: unit not given here", "settings": "for wt.: non-human primate, 300 μg/kg ip once, then 50 μg/kg S.C. 6 days", "method": "(§1) In addition, studies of TGF-α for the treatment of diarrhea in non-human primates was also performed. […] This weight gain was maintained at least for several weeks post treatment. In addition, the reduction of SEGs (see column 6, Table 1) neutrophils correlates with reduction in inflammation associated with neutrophil influx and concomitant pro-inflammatory cytokines."}, "[4]": {"settings": "cited from earlier work"}, "[5]": {"settings": "acid and heat; background statement; cited from earlier work"}, "[6]": {"assay_type": "in vivo", "settings": "non-human primate, 300 μg/kg ip once, then 50 μg/kg S.C. 6 days", "method": "as §1"}, "stem cells": {"system": "stem cells", "experiment": "stimulation of cellular proliferation, 3H thymidine incorporation of stem cells", "assay_type": "cell-based", "settings": "loop peptides of human TGFα; compared to TGF-α 50 aa and 57 aa polypeptide; FIG. 2", "text": "Each of the three loop regions in human TGFα was investigated for TGFα-like biological activity, such as stimulation of cellular proliferation as measured by ^3H thymidine incorporation of stem cells. […] Accordingly, data from TGFα or TGF-α57 show what can be called “TGF-α activity” and that these are predictive of activity of the functional TGF-α peptide and similar functional TGF-α peptides embodied in the genus of formula I with or without the addition of a “tail” region of formula II."}, "[7]": {"system": "human CD34 positive and CD38 negative cells", "experiment": "liquid primary culture of human bone-marrow enriched CD34 cells", "assay_type": "cell-based", "settings": "positive control, 500 ng/ml", "method": "An additional experiment investigated TGF-α activity (using TGF-α57) on human bone-marrow enriched CD34 cells. FACS-sorted human CD34 positive and CD38 negative cells were cultured in liquid primary cultures in Iscove's modified Dulbecco's media with supplements. […] Stem Cell Factor (SCF) was used as a positive control (500 ng/ml) and provided a three-fold increase in CD34 positive cells. When a combination of SCF (500 ng/ml) and TGFα (10 ng/ml) was added, a synergistic 12-fold increase in CD34 positive cells was observed."}}, "note": "Where two headings read alike, the source gives them in different places.", "data": [{"substance": "TGF-α: human transforming growth factor alpha, 50 amino acid polypeptide with three disulfide bonds, SEQ ID NO:1", "values": [{"measurement": "average crypt height", "setting": "mouse intestines", "value": "more-than-restore crypt height loss"}, {"measurement": "IL-6 and MIP", "setting": "[1]", "value": "downregulating IL-6 and MIP"}, {"measurement": "TNF-α receptors", "setting": "[1]", "value": "downregulating TNF-α receptors"}, {"measurement": "mast cell degranulation and histamine release", "setting": "[1]", "value": "prevented mast cell degranulation and subsequent histamine release"}, {"measurement": "neutrophil trafficking", "setting": "[1]", "value": "blocking neutrophil trafficking"}, {"measurement": "binding affinity", "setting": "[2]", "value": "high affinity in the nanomolar range"}, {"measurement": "stool consistency", "setting": "[3]; 300 μg/kg intraperitoneally once, then 50 μg/kg S.C. for 6 days", "value": "steady increase in stool consistency"}, {"measurement": "wt.", "setting": "[3]; Time 1", "value": 5.80}, {"measurement": "wt.", "setting": "[3]; Time 2", "value": 6.33}, {"measurement": "wt.", "setting": "[3]; Time 3", "value": 6.74}, {"measurement": "wt.", "setting": "[3]; Time 4", "value": 8.21}, {"measurement": "wt.", "setting": "[3]; Time 5", "value": 8.93}, {"measurement": "wt.", "setting": "[3]; Time 6", "value": 9.42}, {"measurement": "weight", "setting": "[3]; through the treatment period, 300 μg/kg intraperitoneally once, then 50 μg/kg S.C. for 6 days", "value": "steady weight gain"}, {"measurement": "estimated pKa of the lysine 29 ε amino", "setting": "[4]", "value": 10.4}, {"measurement": "stability", "setting": "[5]", "value": "acid and heat stable"}, {"measurement": "CD4^+", "setting": "[6]; Time 1", "value": 28.4, "unit": "%"}, {"measurement": "CD8^+", "setting": "[6]; Time 1", "value": 56.3, "unit": "%"}, {"measurement": "Dual CD8^+ CD4^+", "setting": "[6]; Time 1", "value": 6.7, "unit": "%"}, {"measurement": "Seg", "setting": "[6]; Time 1", "value": 76, "unit": "%"}, {"measurement": "Seg", "setting": "[6]; Time 2", "value": 69, "unit": "%"}, {"measurement": "CD4^+", "setting": "[6]; Time 3", "value": 36.7, "unit": "%"}, {"measurement": "CD8^+", "setting": "[6]; Time 3", "value": 53.1, "unit": "%"}, {"measurement": "Dual CD8^+ CD4^+", "setting": "[6]; Time 3", "value": 6.3, "unit": "%"}, {"measurement": "Seg", "setting": "[6]; Time 3", "value": 61, "unit": "%"}, {"measurement": "CD4^+", "setting": "[6]; Time 4", "value": 31.3, "unit": "%"}, {"measurement": "CD8^+", "setting": "[6]; Time 4", "value": 54.0, "unit": "%"}, {"measurement": "Dual CD8^+ CD4^+", "setting": "[6]; Time 4", "value": 9.1, "unit": "%"}, {"measurement": "Seg", "setting": "[6]; Time 4", "value": 48, "unit": "%"}, {"measurement": "CD4^+", "setting": "[6]; Time 5", "value": 33.4, "unit": "%"}, {"measurement": "CD8^+", "setting": "[6]; Time 5", "value": 49.8, "unit": "%"}, {"measurement": "Dual CD8^+ CD4^+", "setting": "[6]; Time 5", "value": 8.1, "unit": "%"}, {"measurement": "Seg", "setting": "[6]; Time 5", "value": 46, "unit": "%"}, {"measurement": "CD4^+", "setting": "[6]; Time 6", "value": 35.1, "unit": "%"}, {"measurement": "CD8^+", "setting": "[6]; Time 6", "value": 50.3, "unit": "%"}, {"measurement": "Dual CD8^+ CD4^+", "setting": "[6]; Time 6", "value": 7.7, "unit": "%"}, {"measurement": "Seg", "setting": "[6]; Time 6", "value": 56, "unit": "%"}]}, {"substance": "Loop B: loop peptide region of TGFα, amino acids 16 to 32 (CFHGTCRFLVQEDKPAC)", "values": [{"measurement": "TGF-α biological activity (stimulation of cellular proliferation)", "setting": "stem cells", "value": "Only Loop C showed significant TGF-α activity"}]}, {"substance": "Loop C: loop peptide region of TGFα, amino acids 33 to 50; TGF-α mimetic peptide (VCHSGYVGARCEHADLLA)", "values": [{"measurement": "TGF-α biological activity (stimulation of cellular proliferation)", "setting": "stem cells", "value": "significant TGF-α biological activity"}]}, {"substance": "SCF: Stem Cell Factor, used as a positive control [reference compound]", "values": [{"measurement": "increase in CD34 positive cells", "setting": "[7]", "value": "three-fold"}]}, {"substance": "Loop A: loop peptide region of TGFα, amino acids 1-21 starting at the N terminus (VVSHFNDCPDSHTQFCFHGTC)", "values": [{"measurement": "TGF-α biological activity (stimulation of cellular proliferation)", "setting": "stem cells", "value": "Only Loop C showed significant TGF-α activity"}]}]}
